Data taken from patent US20260216207A1, “7-CARBONYLSTAUROSPORINE DERIVATIVE, PREPARATION METHOD THEREFOR, AND USE THEREOF” (HANGZHOU KEXING BIOCHEM. CO., LTD., priority 2023, published 2026).

Assays:
Assay type in all cases: biochemical
IKKβ = target: T1, IKKβ (Homo sapiens, UniProt O14920); experiment: HTRF KinEASE kinase assay, IKKβ (kinase selectivity); conditions: HTRF KinEASE kit, 3 duplicate wells; read-out: IKKβ IC50
T1 sequence (O14920 1-756): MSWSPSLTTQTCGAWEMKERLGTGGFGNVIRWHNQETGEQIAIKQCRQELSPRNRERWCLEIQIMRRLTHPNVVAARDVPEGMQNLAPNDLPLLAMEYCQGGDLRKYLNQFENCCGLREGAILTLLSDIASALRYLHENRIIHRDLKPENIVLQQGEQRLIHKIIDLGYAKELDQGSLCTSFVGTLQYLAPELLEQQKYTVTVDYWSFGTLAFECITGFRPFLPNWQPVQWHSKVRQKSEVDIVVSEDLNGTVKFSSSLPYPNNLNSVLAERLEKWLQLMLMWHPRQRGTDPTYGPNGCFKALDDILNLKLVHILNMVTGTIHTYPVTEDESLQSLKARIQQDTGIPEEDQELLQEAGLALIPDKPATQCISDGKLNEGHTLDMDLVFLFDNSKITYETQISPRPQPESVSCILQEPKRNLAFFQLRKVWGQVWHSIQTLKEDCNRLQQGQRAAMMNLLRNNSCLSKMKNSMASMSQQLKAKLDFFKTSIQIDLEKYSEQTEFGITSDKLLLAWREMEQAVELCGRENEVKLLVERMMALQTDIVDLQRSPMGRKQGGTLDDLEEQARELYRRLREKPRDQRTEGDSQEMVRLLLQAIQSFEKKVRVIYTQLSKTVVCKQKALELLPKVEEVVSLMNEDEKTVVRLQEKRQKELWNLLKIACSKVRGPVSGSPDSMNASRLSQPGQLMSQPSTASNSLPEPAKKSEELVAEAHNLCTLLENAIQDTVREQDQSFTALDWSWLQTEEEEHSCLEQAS
Method: (§1) Inhibitory activities against PIM-1, TRKA, TRKB, FLT3, PKCδ, PKCε, PKCη, PAK4, PLK1, ROCK2, and IKKβ kinases were all determined using an HTRF®KinEASE™ kinase assay kit based on a time-resolved fluorescence technology. 7-carbonylstaurosporine (7OSTA) and TP-3654 were used as positive controls, and 3 duplicate wells were set in parallel. […] A signal ratio was calculated as F2/F1×10000, and then an IC50 value was calculated using Graphpad Prism 8 software.

ROCK2 = ROCK2 (Homo sapiens, UniProt O75116); experiment: HTRF KinEASE kinase assay, ROCK2 (kinase selectivity); conditions: HTRF KinEASE kit, 3 duplicate wells; read-out: ROCK2 IC50
Chain of ROCK2 (O75116 whole entry, species assumed): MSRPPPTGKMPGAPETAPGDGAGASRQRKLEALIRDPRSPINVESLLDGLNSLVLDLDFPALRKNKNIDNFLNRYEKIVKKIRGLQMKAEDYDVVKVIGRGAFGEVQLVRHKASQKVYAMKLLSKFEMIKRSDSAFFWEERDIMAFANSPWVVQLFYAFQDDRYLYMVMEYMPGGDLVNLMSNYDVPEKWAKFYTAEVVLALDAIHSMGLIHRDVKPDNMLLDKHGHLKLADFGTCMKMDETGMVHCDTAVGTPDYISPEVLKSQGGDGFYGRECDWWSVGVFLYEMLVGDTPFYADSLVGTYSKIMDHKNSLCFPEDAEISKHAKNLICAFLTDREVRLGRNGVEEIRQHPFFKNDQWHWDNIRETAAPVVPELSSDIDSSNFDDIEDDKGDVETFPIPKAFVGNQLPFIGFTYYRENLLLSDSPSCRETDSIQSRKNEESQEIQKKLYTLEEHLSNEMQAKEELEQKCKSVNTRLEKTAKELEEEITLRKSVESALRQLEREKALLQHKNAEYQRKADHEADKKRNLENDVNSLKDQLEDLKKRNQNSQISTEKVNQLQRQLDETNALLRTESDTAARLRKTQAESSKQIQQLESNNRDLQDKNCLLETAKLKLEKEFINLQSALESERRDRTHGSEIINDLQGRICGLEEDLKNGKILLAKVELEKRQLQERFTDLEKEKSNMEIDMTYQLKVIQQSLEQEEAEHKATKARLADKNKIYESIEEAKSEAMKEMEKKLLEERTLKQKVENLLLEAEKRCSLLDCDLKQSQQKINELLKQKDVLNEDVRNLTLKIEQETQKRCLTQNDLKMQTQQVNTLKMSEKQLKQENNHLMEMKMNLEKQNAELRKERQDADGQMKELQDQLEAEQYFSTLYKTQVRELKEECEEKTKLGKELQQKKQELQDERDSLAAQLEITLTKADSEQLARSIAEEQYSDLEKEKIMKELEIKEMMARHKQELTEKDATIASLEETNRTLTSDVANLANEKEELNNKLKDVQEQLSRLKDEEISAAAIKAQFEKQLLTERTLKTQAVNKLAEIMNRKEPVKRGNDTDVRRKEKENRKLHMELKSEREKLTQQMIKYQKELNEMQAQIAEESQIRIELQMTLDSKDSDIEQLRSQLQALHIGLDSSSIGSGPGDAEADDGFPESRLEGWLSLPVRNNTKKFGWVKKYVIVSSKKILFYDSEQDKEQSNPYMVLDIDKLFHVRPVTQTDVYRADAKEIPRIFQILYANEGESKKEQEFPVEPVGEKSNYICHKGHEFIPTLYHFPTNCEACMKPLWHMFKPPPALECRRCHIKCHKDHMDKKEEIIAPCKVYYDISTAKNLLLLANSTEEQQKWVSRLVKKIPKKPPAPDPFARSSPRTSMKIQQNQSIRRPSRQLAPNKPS
Method: as §1

PLK1 = PLK1 (Homo sapiens, UniProt P53350); experiment: HTRF KinEASE kinase assay, PLK1 (kinase selectivity); conditions: HTRF KinEASE kit, 3 duplicate wells; read-out: PLK1 IC50
Chain of PLK1 (P53350 whole entry, species assumed): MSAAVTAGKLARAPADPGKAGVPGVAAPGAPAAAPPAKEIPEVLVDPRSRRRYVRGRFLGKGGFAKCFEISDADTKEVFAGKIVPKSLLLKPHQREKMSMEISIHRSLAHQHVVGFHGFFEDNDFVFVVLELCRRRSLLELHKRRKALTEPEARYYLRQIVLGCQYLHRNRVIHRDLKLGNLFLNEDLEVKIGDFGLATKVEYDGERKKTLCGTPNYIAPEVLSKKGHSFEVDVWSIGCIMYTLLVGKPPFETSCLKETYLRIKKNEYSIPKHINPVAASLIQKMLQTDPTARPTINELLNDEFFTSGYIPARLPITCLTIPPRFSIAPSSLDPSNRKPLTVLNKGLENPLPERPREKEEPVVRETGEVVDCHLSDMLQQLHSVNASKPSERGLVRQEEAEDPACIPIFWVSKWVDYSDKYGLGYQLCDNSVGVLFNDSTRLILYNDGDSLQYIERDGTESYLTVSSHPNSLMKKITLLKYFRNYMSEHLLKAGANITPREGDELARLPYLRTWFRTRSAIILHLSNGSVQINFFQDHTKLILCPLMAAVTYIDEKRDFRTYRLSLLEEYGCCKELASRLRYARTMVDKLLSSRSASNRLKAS
Method: as §1

PAK4 = PAK4 (Homo sapiens, UniProt O96013); experiment: HTRF KinEASE kinase assay, PAK4 (kinase selectivity); conditions: HTRF KinEASE kit, 3 duplicate wells; read-out: PAK4 IC50
Chain of PAK4 (O96013 whole entry, species assumed): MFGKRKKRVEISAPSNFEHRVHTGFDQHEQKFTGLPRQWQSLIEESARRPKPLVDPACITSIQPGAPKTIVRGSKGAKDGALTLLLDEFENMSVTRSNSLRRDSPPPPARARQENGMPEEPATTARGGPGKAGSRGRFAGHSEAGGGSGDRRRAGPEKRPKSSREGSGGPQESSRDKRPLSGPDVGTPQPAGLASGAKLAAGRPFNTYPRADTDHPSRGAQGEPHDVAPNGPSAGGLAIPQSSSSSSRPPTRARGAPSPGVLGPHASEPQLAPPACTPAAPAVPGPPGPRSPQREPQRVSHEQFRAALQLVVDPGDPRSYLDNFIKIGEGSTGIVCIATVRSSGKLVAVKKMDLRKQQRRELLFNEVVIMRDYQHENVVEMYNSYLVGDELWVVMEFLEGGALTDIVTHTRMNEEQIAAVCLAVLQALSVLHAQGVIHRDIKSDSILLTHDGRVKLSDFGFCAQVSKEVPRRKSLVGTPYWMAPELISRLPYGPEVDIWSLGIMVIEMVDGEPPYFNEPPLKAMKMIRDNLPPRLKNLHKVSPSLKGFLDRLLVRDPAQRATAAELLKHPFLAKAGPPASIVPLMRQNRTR
Method: as §1

PKCδ = PKCδ (Homo sapiens, UniProt Q05655); experiment: HTRF KinEASE kinase assay, PKCδ (kinase selectivity); conditions: HTRF KinEASE kit, 3 duplicate wells; read-out: PKCδ IC50
Chain of PKCδ (Q05655 whole entry): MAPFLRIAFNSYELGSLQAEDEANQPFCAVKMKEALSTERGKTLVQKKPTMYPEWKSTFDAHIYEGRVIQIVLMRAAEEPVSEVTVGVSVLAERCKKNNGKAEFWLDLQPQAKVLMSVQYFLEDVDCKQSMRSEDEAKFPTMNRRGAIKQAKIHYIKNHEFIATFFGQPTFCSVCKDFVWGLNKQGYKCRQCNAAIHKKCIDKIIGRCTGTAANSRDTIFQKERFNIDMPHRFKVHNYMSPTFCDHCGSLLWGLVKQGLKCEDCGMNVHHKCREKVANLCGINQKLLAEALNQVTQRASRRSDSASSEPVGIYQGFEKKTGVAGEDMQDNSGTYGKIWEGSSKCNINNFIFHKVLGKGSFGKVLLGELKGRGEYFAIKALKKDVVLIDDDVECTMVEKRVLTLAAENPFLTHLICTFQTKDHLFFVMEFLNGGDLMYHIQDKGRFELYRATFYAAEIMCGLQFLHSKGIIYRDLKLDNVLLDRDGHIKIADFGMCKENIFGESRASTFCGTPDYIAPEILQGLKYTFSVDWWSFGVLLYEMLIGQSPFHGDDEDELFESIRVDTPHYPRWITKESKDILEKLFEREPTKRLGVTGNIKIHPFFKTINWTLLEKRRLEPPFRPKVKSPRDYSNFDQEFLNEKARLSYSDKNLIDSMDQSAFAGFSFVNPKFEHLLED
Method: as §1

FLT3 = target: T2, FLT3 (Homo sapiens, UniProt P36888); experiment: HTRF KinEASE kinase assay, FLT3 (kinase selectivity); conditions: HTRF KinEASE kit, 3 duplicate wells; read-out: FLT3 IC50
T2 sequence (P36888 27-993): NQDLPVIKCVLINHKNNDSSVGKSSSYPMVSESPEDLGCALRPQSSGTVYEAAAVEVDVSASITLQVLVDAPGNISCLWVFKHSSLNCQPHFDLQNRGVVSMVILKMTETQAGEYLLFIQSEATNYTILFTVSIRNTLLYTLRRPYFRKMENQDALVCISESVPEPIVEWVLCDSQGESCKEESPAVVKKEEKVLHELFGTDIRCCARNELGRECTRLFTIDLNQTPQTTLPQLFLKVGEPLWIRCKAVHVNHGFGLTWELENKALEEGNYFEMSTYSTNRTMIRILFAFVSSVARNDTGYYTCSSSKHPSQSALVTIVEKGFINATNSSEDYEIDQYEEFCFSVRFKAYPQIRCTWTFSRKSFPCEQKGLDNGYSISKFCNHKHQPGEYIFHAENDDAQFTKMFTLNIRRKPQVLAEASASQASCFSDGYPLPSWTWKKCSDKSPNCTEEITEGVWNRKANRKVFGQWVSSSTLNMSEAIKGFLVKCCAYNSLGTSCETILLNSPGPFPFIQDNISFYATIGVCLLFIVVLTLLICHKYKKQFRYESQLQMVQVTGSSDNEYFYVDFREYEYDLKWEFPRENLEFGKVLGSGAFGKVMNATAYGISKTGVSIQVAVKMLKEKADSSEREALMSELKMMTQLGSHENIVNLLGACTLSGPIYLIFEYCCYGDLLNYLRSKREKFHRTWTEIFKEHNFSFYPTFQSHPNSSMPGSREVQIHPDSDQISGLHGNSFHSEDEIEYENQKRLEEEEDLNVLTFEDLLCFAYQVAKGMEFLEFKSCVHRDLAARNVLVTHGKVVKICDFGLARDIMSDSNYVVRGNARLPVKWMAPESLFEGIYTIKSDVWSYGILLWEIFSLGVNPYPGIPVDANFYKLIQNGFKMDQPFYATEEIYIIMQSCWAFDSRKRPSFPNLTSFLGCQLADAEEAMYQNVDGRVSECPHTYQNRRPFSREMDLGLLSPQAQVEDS
Method: as §1

TRKA = TRKA (Homo sapiens, UniProt P04629); experiment: HTRF KinEASE kinase assay, TRKA (kinase selectivity); conditions: HTRF KinEASE kit, 3 duplicate wells; read-out: TRKA IC50
Chain of TRKA (P04629 33-796, species assumed): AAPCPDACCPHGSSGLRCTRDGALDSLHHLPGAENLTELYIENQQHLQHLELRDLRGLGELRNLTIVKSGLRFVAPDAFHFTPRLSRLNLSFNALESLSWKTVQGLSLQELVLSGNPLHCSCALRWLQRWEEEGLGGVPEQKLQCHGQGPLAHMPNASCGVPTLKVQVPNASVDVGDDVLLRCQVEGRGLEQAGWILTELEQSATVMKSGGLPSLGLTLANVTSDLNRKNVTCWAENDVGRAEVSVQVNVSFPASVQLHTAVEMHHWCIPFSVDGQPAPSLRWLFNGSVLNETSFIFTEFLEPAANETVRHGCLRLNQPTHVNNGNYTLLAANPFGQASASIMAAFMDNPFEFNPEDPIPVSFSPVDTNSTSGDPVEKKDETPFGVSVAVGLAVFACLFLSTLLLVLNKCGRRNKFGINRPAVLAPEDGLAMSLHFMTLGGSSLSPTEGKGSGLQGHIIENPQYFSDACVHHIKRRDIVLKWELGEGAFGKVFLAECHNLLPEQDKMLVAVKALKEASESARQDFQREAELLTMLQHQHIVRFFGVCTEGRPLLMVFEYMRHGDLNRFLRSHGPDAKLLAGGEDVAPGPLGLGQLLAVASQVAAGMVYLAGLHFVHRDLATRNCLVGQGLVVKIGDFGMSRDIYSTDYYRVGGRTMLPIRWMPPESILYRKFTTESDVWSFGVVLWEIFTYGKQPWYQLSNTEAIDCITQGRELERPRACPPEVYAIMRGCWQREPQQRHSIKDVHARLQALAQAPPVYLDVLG
Method: as §1

For `CO[C@@H]1[C@H](N(C)C(=O)CCC(=O)NO)C[C@H]2O[C@]1(C)n1c3ccccc3c3c4c(c5c6ccccc6n2c5c31)C(=O)NC4=O` [Compound 17], the IC50 (IKKβ) was over 1000 nM, the IC50 (ROCK2) was 562 nM and the IC50 (PLK1) was 421 nM. It also gave an IC50 (PAK4) of 240 nM, an IC50 (PKCδ) of 10.4 nM and an IC50 (FLT3) of 5.3 nM. The IC50 (TRKA) was 4 nM.
